Test [1] has as its target T1, His-GST-TVMV-hRIPK1(1-324) (Homo sapiens, UniProt Q13546).
T1 construct: The coding region of human RIPK1(1-324) flanked by NdeI site at 5′ end; made in house; host or cells: Spodoptera frugiperda Sf9 insect cells (baculovirus, Bac-to-Bac)
T1 sequence (Q13546 1-324): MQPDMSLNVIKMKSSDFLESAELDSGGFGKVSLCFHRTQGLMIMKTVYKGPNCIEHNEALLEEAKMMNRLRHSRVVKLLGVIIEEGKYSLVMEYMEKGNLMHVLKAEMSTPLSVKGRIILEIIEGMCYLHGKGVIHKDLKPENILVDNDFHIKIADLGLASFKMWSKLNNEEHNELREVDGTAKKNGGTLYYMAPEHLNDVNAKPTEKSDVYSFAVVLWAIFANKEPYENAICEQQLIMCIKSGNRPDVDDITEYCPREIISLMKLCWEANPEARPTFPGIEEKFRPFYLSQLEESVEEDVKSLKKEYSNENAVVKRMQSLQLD
The test can be described thus: biochemical. The class given is binding.

Test [2] addresses GST-tagged PIK3Cδ in complex with PIK3R1 (Homo sapiens, UniProt O00329). Nature of the test: PI3Kδ HTRF binding assay. The conditions noted are these: read-out: PIK3CD IC50. On the technique in general: In TR-FRET formats the signal depends on donor and acceptor labels being close together.
Test [3] deals with MLKL phosphorylation in HT29-L23 human colorectal adenocarcinoma cells. Nature of the test: MLKL phosphorylation high-content assay. The class given is cell-based.
[4] abbreviates: HTRF probe displacement, 1 h at rt, read-out: RIPK1 IC50.
[5] abbreviates: HTRF probe displacement, 1 h at rt.
[6] abbreviates: read-out: pMLKL IC50, HT29-L23 cells, necroptosis induced with TNFα, SMAC mimetic and Z-VAD, 6 h, maximal inhibition defined by Nec1s.
Where [7] appears, read: Homo sapiens, 6 h, read-out: pMLKL IC50, HT29-L23 cells, necroptosis induced with TNFα, SMAC mimetic and Z-VAD, 6 h, maximal inhibition defined by Nec1s.
Where [8] appears, read: Table 22, compounds of the present invention, read-out: RPIK1 IC50.

Read-outs that look alike come from different tables or passages of the source.

GST-tagged PIK3Cδ in complex with PIK3R1, sequence (O00329 whole entry): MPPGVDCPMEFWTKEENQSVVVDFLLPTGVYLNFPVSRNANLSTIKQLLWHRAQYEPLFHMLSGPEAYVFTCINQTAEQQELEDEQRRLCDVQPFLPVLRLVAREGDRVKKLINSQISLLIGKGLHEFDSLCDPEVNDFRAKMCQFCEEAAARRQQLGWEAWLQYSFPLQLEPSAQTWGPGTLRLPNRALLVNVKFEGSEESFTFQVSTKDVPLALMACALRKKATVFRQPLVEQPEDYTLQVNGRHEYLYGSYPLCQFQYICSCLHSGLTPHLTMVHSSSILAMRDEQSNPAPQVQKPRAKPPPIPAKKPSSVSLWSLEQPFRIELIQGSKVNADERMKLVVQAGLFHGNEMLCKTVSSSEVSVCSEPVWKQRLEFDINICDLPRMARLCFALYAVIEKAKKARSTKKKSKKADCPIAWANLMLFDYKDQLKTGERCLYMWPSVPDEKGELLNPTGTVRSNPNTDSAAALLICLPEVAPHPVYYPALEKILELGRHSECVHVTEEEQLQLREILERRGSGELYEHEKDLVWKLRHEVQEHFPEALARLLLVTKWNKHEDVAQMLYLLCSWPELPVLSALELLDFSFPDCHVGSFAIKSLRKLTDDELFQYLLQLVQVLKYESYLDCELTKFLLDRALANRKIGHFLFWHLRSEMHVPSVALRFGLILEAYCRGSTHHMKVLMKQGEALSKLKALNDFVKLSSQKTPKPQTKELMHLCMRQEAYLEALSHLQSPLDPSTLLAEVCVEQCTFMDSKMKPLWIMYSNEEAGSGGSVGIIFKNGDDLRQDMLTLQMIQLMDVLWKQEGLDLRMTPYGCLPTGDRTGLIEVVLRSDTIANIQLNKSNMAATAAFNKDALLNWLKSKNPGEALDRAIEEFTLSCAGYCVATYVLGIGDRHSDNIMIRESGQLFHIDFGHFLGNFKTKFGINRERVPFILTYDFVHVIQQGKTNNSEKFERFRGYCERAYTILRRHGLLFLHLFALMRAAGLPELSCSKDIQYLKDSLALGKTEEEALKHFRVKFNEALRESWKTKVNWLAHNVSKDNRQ
GST-tagged PIK3Cδ in complex with PIK3R1, sequence (P27986 whole entry partner): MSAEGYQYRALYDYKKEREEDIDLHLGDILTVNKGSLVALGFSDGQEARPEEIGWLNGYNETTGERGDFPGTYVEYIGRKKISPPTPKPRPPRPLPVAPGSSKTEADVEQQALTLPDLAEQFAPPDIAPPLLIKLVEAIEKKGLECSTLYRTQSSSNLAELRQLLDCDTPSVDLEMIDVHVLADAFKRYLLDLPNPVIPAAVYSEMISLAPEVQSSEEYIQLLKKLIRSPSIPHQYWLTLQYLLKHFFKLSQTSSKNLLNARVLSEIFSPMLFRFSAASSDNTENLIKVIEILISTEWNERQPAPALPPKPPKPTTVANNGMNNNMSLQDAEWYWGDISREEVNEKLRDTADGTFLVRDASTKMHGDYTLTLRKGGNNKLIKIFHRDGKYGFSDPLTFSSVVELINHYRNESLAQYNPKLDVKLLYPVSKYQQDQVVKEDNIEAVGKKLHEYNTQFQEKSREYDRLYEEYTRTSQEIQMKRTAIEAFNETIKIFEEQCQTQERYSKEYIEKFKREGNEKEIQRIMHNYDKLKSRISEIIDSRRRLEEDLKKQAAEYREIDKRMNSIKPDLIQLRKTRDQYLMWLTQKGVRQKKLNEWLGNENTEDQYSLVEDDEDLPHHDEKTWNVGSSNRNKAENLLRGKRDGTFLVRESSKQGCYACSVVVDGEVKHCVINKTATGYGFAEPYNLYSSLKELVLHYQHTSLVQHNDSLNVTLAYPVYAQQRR

A word on the IC50: it is the concentration that gives 50% inhibition. Regarding `Cc1ccc(-c2ccn3nc(N)nc3c2)c(F)c1C(=O)NC(CF)CC(O)c1ccc(F)cc1` (single isomer, unassigned) [Example 26, 3-(2-amino-[1,2,4]triazolo[1,5-a]pyridin-7-yl)-2-fluoro-N-(1-fluoro-4-(4-fluorophenyl)-4-hydroxybutan-2-yl)-6-methylbenzamide], the values for the half-maximal inhibitory concentration (IC50) in test [1] (setting [4]), in test [2] (setting [5]) and in test [3] (setting [6]) were 233 nM, over 15000 nM and 696 nM, respectively.

`Cc1ccc(-c2ccn3nc(N)nc3c2)c(F)c1C(=O)NCCC(C)(O)c1ccc(Cl)cc1` (single isomer, unassigned) [Example 60, 3-(2-amino-[1,2,4]triazolo[1,5-a]pyridin-7-yl)-N-(3-(4-chlorophenyl)-3-hydroxybutyl)-2-fluoro-6-methylbenzamide]: the IC50 in test [1] (setting [4]) is 1 nM; in test [2] (setting [5]) it was over 15000 nM; in test [3] (setting [6]), 1.3 nM.

For `Cc1ccc(-c2ccn3nc(N)nc3c2)c(F)c1C(=O)NCC(F)(F)C(C)(O)c1ccc(Cl)cc1` (single isomer, unassigned) [Example 221, 3-(2-amino-[1,2,4]triazolo[1,5-a]pyridin-7-yl)-N-(3-(4-chlorophenyl)-2,2-difluoro-3-hydroxybutyl)-2-fluoro-6-methylbenzamide], the IC50 was 3.2 nM in test [1] (setting [4]), over 15000 nM in test [2] (setting [5]) and 0.9 nM in test [3] (setting [7]).

Turning to `Nc1nc2cc(-c3ccc(Cl)c(C(=O)NCC(F)(F)C(O)c4cc(F)cc(F)c4)c3F)ccn2n1` (stereo not drawn) [Example 189, 3-(2-amino-[1,2,4]triazolo[1,5-a]pyridin-7-yl)-6-chloro-N-(3-(3,5-difluorophenyl)-2,2-difluoro-3-hydroxypropyl)-2-fluorobenzamide], the IC50 was determined as 11 nM in test [1] (setting [4]), 5600 nM in test [2] (setting [5]) and 38 nM in test [3] (setting [6]).

`CCc1ccc(-c2ccn3nc(N)nc3c2)c(F)c1C(=O)NCC(F)(F)C(O)c1ccc(F)cn1` (single isomer, unassigned) [Example 266, 3-(2-amino-[1,2,4]triazolo[1,5-a]pyridin-7-yl)-N-(2,2-difluoro-3-(5-fluoropyridin-2-yl)-3-hydroxypropyl)-6-ethyl-2-fluorobenzamide]: the IC50 in test [1] (setting [4]) is 13 nM; in test [2] (setting [5]), over 15000 nM; in test [3] (setting [7]) it was 2.4 nM.

As for `Cc1c(F)cc(-c2ccn3nc(N)nc3c2)cc1C(=O)NCC(F)(F)C(O)c1ccc(F)cc1` (single isomer, unassigned) [Example 232, 5-(2-amino-[1,2,4]triazolo[1,5-a]pyridin-7-yl)-N-(2,2-difluoro-3-(4-fluorophenyl)-3-hydroxypropyl)-3-fluoro-2-methylbenzamide], the values for the IC50 in test [1] (setting [4]), in test [2] (setting [5]) and in test [3] (setting [6]) were 4.5 nM, over 15000 nM and 3 nM, respectively.

`Cc1ccc(-c2ccn3nc(N)nc3c2)c(F)c1C(=O)NCC(F)(F)C(O)c1ccc(F)cn1` (stereo not drawn) [Example 270, 3-{2-amino-[1,2,4]triazolo[1,5-a]pyridin-7-yl}-N-[2,2-difluoro-3-(5-fluoropyridin-2-yl)-3-hydroxypropyl]-2-fluoro-6-methylbenzamide]: the concentration for half-maximal inhibition (IC50) in test [1] (setting [4]) was 11 nM; in test [2] (setting [5]), over 15000 nM; in test [3] (setting [6]), 3.1 nM.

Take `Cc1ccc(-c2ccn3nc(N)nc3c2)c(F)c1C(=O)NC(C)CC(O)c1ccc(F)cc1` (single isomer, unassigned) [Example 38, 3-(2-amino-[1,2,4]triazolo[1,5-a]pyridin-7-yl)-2-fluoro-N-(4-(4-fluorophenyl)-4-hydroxybutan-2-yl)-6-methylbenzamide]: the results for the IC50 in test [1] (setting [4]), in test [2] (setting [5]) and in test [3] (setting [6]) were 4.7 nM, over 15000 nM and 6 nM, respectively.

Regarding `COc1ccc(-c2ccn3nc(N)nc3c2)c(F)c1C(=O)NCC[C@H](O)c1ccc(Cl)cc1` [Example 147, (S)-3-(2-amino-[1,2,4]triazolo[1,5-a]pyridin-7-yl)-N-(3-(4-chlorophenyl)-3-hydroxypropyl)-2-fluoro-6-methoxybenzamide], the IC50 in test [1] (setting [4]) worked out at 9.4 nM; in test [1] (setting [8]), 9.4 nM; in test [2] it was 13000 nM; in test [3] (setting [7]), 21 nM; in test [3] (Homo sapiens, read-out: pMLKL IC50, Table 22, compounds of the present invention), 21 nM.

Regarding `Cc1ccc(-c2ccn3nc(N)nc3c2)c(F)c1C(=O)NCC(F)(F)C(O)c1ccc(F)c(F)c1` (single isomer, unassigned) [Example 198, 3-(2-amino-[1,2,4]triazolo[1,5-a]pyridin-7-yl)-N-(3-(3,4-difluorophenyl)-2,2-difluoro-3-hydroxypropyl)-2-fluoro-6-methylbenzamide], the half-inhibitory concentration (IC50) in test [1] (setting [4]) was 6.4 nM; in test [2] (setting [5]), over 15000 nM; in test [3] (setting [6]), 1.3 nM.

Consider `Cc1ccc(-c2ccn3nc(N)nc3c2)c(F)c1C(=O)NCCC(C)(C)c1ccc(Cl)cc1` [Example 15, 3-(2-amino-[1,2,4]triazolo[1,5-a]pyridin-7-yl)-N-(3-(4-chlorophenyl)-3-methylbutyl)-2-fluoro-6-methylbenzamide], for which the values for the half-inhibitory concentration (IC50) in test [1] (setting [4]), in test [2] (setting [5]) and in test [3] (setting [7]) were 1.5 nM, over 15000 nM and 1.7 nM, respectively.

For `Cc1cc(F)c(-c2ccn3nc(N)nc3c2)c(F)c1C(=O)NCC[C@H](O)c1ccc(Cl)cc1` [Example 277, (S)-3-(2-amino-[1,2,4]triazolo[1,5-a]pyridin-7-yl)-N-(3-(4-chlorophenyl)-3-hydroxypropyl)-2,4-difluoro-6-methylbenzamide], the results for the IC50 in test [1] (setting [4]), in test [2] (setting [5]) and in test [3] (setting [7]) were 36 nM, over 15000 nM and 69 nM, respectively.

Take `Cc1ccc(-c2ccn3nc(N)nc3c2)cc1C(=O)NCC[C@@H](O)c1ccc(Cl)cc1` [Example 159, (R)-5-(2-amino-[1,2,4]triazolo[1,5-a]pyridin-7-yl)-N-(3-(4-chlorophenyl)-3-hydroxypropyl)-2-methylbenzamide]: the IC50 in test [1] (setting [4]) was 2.5 nM; in test [1] (setting [8]), 2.5 nM; in test [2] (setting [5]) it was over 15000 nM; in test [3] (Homo sapiens, 6 h, HT29-L23 cells, necroptosis induced with TNFα, SMAC mimetic and Z-VAD, 6 h, maximal inhibition defined by Nec1s, read-out: pMLKL IC50) it was 1.9 nM; in test [3] (Homo sapiens, Table 22, compounds of the present invention, read-out: pMLKL IC50) it was 1.9 nM.

As to `Cc1ccc(-c2ccn3nc(N)nc3c2)c(F)c1C(=O)NCCC(O)C1CCCCC1` (single isomer, unassigned) [Example 41, 3-(2-amino-[1,2,4]triazolo[1,5-a]pyridin-7-yl)-N-(3-cyclohexyl-3-hydroxypropyl)-2-fluoro-6-methylbenzamide], the concentration for half-maximal inhibition (IC50) in test [1] (setting [4]) is 5.4 nM; in test [2] (setting [5]) it was over 15000 nM; in test [3] (setting [6]) it was 7.7 nM.

For the compound `Cc1ccc(-c2ccn3nc(N)nc3c2)c(F)c1C(=O)NCCC(O)c1ccc(F)c(F)c1` (single isomer, unassigned) [Example 67, 3-(2-amino-[1,2,4]triazolo[1,5-a]pyridin-7-yl)-N-(3-(3,4-difluorophenyl)-3-hydroxypropyl)-2-fluoro-6-methylbenzamide], the 50% inhibitory concentration (IC50) in test [1] (setting [4]) is 4.4 nM; in test [1] (setting [8]), 4.4 nM; in test [2] (setting [5]), over 15000 nM; in test [3] (setting [6]) it was 1.3 nM; in test [3] (read-out: pMLKL IC50, Table 22, compounds of the present invention), 1.3 nM.

`Nc1nc2cc(-c3ccc(Cl)c(C(=O)NCC(F)(F)C(O)c4ccc(Cl)c(Cl)n4)c3F)ccn2n1` (single isomer, unassigned) [Example 272, 3-(2-amino-[1,2,4]triazolo[1,5-a]pyridin-7-y)-6-chloro-N-(3-(5,6-dichloropyridin-2-yl)-2,2-difluoro-3-hydroxypropyl)-2-fluorobenzamide]: the half-inhibitory concentration (IC50) in test [1] (setting [4]) was 6.8 nM; in test [2] (setting [5]), over 15000 nM; in test [3] (setting [7]), 11 nM.

As to `[2H]C([2H])(CC([2H])(O)c1ccc(Cl)cc1)NC(=O)c1c(C)ccc(-c2ccn3nc(N)nc3c2)c1F` (single isomer, unassigned) [Example 53, 3-(2-amino-[1,2,4]triazolo[1,5-a]pyridin-7-yl)-N-(3-(4-chlorophenyl)-3-hydroxypropyl-1,1,3-d3)-2-fluoro-6-methylbenzamide], the 50% inhibitory concentration (IC50) in test [1] (setting [4]) came out at 1.2 nM; in test [2] (setting [5]), 14000 nM; in test [3] (setting [6]), 0.9 nM.

On to `Nc1nc2cc(-c3ccc(Cl)c(C(=O)NC[C@H](F)[C@@H](O)c4ccc(F)cc4)c3F)ccn2n1` (single isomer, unassigned) [Example 296], for which the IC50 in test [1] (setting [4]) was 15 nM; in test [2] (setting [5]), 10000 nM; in test [3] (setting [7]) it was 22 nM.

As to `Cc1ccc(-c2ccn3nc(N)nc3c2)c(F)c1C(=O)NCC(F)(F)C(O)c1ccc(Cl)cc1` (stereo not drawn) [Example 29, 3-(2-amino-[1,2,4]triazolo[1,5-a]pyridin-7-yl)-N-(3-(4-chlorophenyl)-2,2-difluoro-3-hydroxypropyl)-2-fluoro-6-methylbenzamide], the IC50 was 2.2 nM in test [1] (setting [4]), over 15000 nM in test [2] (setting [5]) and 0.7 nM in test [3] (setting [7]).

These data come from US11767322B2 (BRISTOL-MYERS SQUIBB COMPANY, priority 2020, dated 2023).
